# Measured values as given in patent US20230212316A1, “IgG EPITOPE PEPTIDES THAT BIND […] AND METHODS OF USE THEREOF” (priority 2021, published 2023).
# Where no end group is shown, it is not given here. [ ]: non-standard residue; d: D form. Cit = NC(=O)NCCC[C@H](N)C(=O)O
# What was measured:
# [1] = tested on: serum IgG (rheumatoid factors); assay: Peptide ELISA: serum IgG binding to biotinylated IgG1-derived peptides; set-up: species or system human; conditions: for Serum IgG binding to the peptide compared to controls: FIG. 3; for IgG binding to the peptide: Sjogren's disease subjects previously RF positive versus matched controls, FIG. 9B
# [2] = tested on: serum IgM (rheumatoid factors); assay: Peptide ELISA: serum IgM binding to biotinylated IgG1-derived peptides; set-up: species or system human; conditions: for IgM binding to the peptide: Sjogren's disease subjects previously RF positive versus matched controls, FIG. 9B; for IgM that binds to the peptide: COVID-19 convalescent subjects versus RA+, RA−, smokers and naïve controls, FIG. 8A
# plasma IgG = conditions: anti-CCP+ subjects who later develop RA compared to anti-CCP− subjects and CCP+ subjects who do not develop RA; FIG. 10B
# Excerpt: Human Subjects: Human subjects research was approved by the University of Wisconsin (UW) Institutional Review Board and complied with the Helsinki Declaration. Most sera were obtained from the UW Rheumatology Biorepository, which includes rheumatoid arthritis, systemic lupus erythematosus, Sjögren's disease (SjD), spondyloarthropathy, and controls (including current and never smokers) collected prior to 2019. Subjects were ≥18 years old. All subjects with rheumatic disease were confirmed to have that disease by a rheumatologist. […] Controls were matched by age and gender and carried none of the following diagnoses: RA, lupus, Sjögren's disease, scleroderma, psoriasis, psoriatic arthritis, ankylosing spondylitis, reactive arthritis, ulcerative colitis, Crohn's disease, multiple sclerosis, type I diabetes, hematologic malignancy, or past COVID-19.
# Enzyme Linked Immunosorbent Assay (ELISA): For peptide ELISA, plates were coated with 5 μg/ml streptavidin (Thermo Fisher Scientific) for 1 hour at room temperature (RT) or overnight at 4 degrees Celsius, washed with PBS, then coated with 0.1-1.0 μM of peptide conjugated to biotin at the C terminus (Biomatik, Kitchener, Canada or Peptide2.0, Chantilly, Va., USA) for 1 hour at RT. For IgG Fc ELISA, plates were coated overnight at 4° C. with 10 μg/ml IgG Fc in PBS in 4 forms: treated with PADs in buffer, treated with 0.1M KOCN in dH2O, diluted in citrullination buffer, diluted in dH2O. After washing with PBS, plates were blocked for 1 hour to overnight at RT with 5% non-fat dried milk in 0.2% Tween 20 in PBS (serum ELISA block) or 1% BSA in PBS (mAMPA ELISA block without 0.1% Tween 20). Sera diluted 1:100, 1:200 or 1:2000 in serum ELISA block or 1 μg/m1mAMPAs in mAMPA ELISA block were applied to plates overnight at 4° C. […] After one hour at RT, plates were washed, developed with 3,3′,5,5′-tetramethylbenzidine (Thermo Fisher Scientific), then stopped with 0.18 M sulfuric acid. Plates were read on a FilterMAX F3 (Molecular Devices, San Jose, USA) at 450 and 562, with 562 values subtracted from 450 values for each sample. For each sample, absorbance values for uncoated wells were subtracted from peptide- or Fc-coated wells to exclude non-specific binding, and absorbance values for PAD-containing buffer were subtracted from wells coated with PAD-treated IgG Fc to exclude anti-PAD reactivity.
# plasma IgM = assay: Pre-clinical RA peptide ELISA: plasma IgM binding to IgG1 peptides; set-up: species or system human; conditions: CCP− controls and anti-CCP+ subjects who do not develop RA imminently compared to anti-CCP+ subjects who do develop RA imminently; FIG. 10A
# Excerpt: Subjects were ≥18 years old.
# [3] = COVID-19 convalescent subjects, 5 weeks post-symptom resolution (n=121)
# [4] = Control (non-smoking COVID-19 naïve controls without autoimmune disease, n=54)
# [5] = RA+ (seropositive rheumatoid arthritis subjects, n=31)
# [6] = RA− (seronegative rheumatoid arthritis subjects, n=26)
Sequence,"Percent of subjects that would be considered seropositive for IgM antibodies against the peptide using a preliminary cutoff [2, 3] [%]","Percent of subjects that would be considered seropositive for IgM antibodies against the peptide using a preliminary cutoff [2, 4] [%]","Percent of subjects that would be considered seropositive for IgM antibodies against the peptide using a preliminary cutoff [2, 5] [%]","Percent of subjects that would be considered seropositive for IgM antibodies against the peptide using a preliminary cutoff [2, 6] [%]",IgM binding to the peptide [2],"Percent of subjects that would be considered seropositive for IgM antibodies against the peptide using a preliminary cutoff ([2]; Smoker (current smokers, n=10)) [%]",IgG binding to the peptide [1],IgM that binds to the peptide [2],Plasma IgG that binds to the peptide (plasma IgG),also measured
"CPPCPAPELLGGPSV (IgG epitope) [Peptide P01857-109, native peptide from the hinge region of IgG1 starting at position 109]",,,,,,,,,,"Serum IgG binding to the peptide compared to controls ([1]; anti-CCP+RF+ RA): trend towards increased binding; Serum IgG binding to the peptide compared to controls ([1]; anti-CCP-RF− RA): no increased binding; Serum IgG binding to the peptide compared to controls ([1]; anti-SSA+ Sjögren's disease): significantly increased binding; Serum IgG binding to the peptide compared to controls ([1]; lupus): but not lupus or spondyloarthropathy serum IgG, had significantly increased binding; Serum IgG binding to the peptide compared to controls ([1]; spondyloarthropathy): but not lupus or spondyloarthropathy serum IgG, had significantly increased binding"
"DKTHTCPPCPAPELLG (IgG epitope) [Peptide P01857-104, native IgG1 hinge peptide, position 104]",14,2,23,12,bound,20,bound,,,
"KDTLMISRTPEVTCVV (IgG epitope) [Peptide P01857-131, native IgG1 peptide, position 131]",45,2,0,0,not bound,0,not bound,increased,,
LAPSSJSTSGGTAALGC [Peptide P01857-11J],,,,,,,,,higher,
"LTVDKSRWQQGNVFSC (IgG epitope) [Peptide P01857-293, native IgG1 peptide, position 293]",12,0,3,0,not bound,0,not bound,increased,,"IgG that binds to the peptide ([1]; COVID-19 convalescent subjects versus RA+, RA−, smokers and naïve controls, FIG. 8B): increased"
LYSJLTVDJSRWQQGNVFS [Peptide P01857-289J],,,,,,,,,higher,
"LYSKLTVDKSBWQQGNVFS (LYSKLTVDKS[Cit]WQQGNVFS) [Peptide P01857-289B, citrulline (B)-containing IgG1 peptide, position 289]",,,,,,,,,,Plasma IgM that binds to the peptide (plasma IgM): higher
"RDELTKNQVSLTCLVK (IgG epitope) [Peptide P01857-238, native IgG1 peptide, position 238]",44,0,6,4,not bound,0,not bound,increased,,
TYICNVNHJPSNTJVDJJVEPJSC [Peptide P01857-80J],,,,,,,,,higher,
YJCJVSNJALPAP [Peptide P01857-202J],,,,,,,,,higher,
